Laboratory results published in patent US20150329558A1, “FUSED HETEROCYCLIC COMPOUNDS AS ION CHANNEL MODULATORS” (Gilead Sciences, Inc., priority 2011, published 2015).
Like-named read-outs stand apart in the source and are kept apart here.

Experiments:
[1] = Microsomal stability assay, rat; type: in vitro ADME; details: metabolic stability, rat liver microsomes 0.5 mg/mL, substrate 3 uM
How it was run: (§1)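 Liver microsomes at 0.5 mg/mL protein in 100 mM KPO4 buffer, incubated with 3 uM compound and NADPH-regenerating system, run in duplicate. Samples taken at 2, 12, 25, 45 and 65 min and quenched in MeOH/ACN/water before analysis.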

[2] = Microsomal stability assay, human; type: in vitro ADME; details: metabolic stability, human liver microsomes 0.5 mg/mL, substrate 3 uM
How it was run: as §1

[3] = target: wild-type human cardiac sodium channel, hNav1.5 (late INa) (Homo sapiens, UniProt Q14524); assay: Late INa screening assay (QPatch whole cell patch clamp); type: cell-based; details: percent block of late INa, compound at 1 μM, 10 μM Tefluthrin, HEK293 hNav1.5; read-out: Late INa 1 μM
Sequence of wild-type human cardiac sodium channel, hNav1.5 (late INa) (Q14524 whole entry): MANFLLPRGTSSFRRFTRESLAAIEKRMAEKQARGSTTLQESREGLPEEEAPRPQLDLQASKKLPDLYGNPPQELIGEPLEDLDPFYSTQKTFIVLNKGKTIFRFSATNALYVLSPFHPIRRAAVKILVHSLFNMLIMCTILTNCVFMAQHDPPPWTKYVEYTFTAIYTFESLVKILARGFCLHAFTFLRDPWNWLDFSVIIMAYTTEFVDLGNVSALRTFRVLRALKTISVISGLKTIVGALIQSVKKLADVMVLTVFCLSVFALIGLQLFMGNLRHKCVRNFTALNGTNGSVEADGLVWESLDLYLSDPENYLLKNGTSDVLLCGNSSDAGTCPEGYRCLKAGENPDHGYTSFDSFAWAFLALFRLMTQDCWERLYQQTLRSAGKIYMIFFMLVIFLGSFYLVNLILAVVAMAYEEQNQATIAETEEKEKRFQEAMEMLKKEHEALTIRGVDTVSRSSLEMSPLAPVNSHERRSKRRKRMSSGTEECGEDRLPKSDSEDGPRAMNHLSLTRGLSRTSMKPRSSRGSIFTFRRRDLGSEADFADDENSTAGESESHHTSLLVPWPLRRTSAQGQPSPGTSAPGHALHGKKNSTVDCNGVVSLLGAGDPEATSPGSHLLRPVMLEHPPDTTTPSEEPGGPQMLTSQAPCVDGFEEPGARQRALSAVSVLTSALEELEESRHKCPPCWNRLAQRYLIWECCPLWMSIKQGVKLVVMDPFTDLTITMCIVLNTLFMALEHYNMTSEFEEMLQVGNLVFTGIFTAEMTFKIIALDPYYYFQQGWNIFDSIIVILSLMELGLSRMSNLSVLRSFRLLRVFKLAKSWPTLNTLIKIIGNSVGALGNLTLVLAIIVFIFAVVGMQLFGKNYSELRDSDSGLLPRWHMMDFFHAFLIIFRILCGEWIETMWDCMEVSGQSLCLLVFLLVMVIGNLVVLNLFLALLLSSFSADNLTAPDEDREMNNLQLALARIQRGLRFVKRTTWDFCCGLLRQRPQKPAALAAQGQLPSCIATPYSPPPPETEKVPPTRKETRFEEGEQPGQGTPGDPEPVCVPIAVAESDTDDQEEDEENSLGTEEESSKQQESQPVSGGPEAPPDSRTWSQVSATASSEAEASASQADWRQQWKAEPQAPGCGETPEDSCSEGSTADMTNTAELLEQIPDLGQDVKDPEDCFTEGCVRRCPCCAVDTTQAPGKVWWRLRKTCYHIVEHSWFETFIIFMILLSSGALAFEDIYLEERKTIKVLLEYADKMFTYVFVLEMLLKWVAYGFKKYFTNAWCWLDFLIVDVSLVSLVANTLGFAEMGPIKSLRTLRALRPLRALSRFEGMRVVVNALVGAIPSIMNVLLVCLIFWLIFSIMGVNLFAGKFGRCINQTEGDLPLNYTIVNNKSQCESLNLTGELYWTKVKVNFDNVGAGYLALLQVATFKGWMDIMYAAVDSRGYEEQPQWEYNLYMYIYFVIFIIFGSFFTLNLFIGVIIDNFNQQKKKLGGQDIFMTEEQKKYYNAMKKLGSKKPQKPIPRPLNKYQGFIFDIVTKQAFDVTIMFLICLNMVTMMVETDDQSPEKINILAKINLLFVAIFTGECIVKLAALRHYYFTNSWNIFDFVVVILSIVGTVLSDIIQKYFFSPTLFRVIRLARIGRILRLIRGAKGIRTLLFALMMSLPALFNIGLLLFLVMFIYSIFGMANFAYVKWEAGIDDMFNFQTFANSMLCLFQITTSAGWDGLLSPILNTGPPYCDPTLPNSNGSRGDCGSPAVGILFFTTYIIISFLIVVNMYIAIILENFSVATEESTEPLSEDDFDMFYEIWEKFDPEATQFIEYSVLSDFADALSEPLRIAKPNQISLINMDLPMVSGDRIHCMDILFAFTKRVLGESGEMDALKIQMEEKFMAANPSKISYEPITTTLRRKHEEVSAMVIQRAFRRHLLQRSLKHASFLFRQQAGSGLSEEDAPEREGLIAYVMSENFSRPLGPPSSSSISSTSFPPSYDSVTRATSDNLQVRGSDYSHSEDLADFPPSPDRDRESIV
How it was run: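 Compounds tested at 1 μM final in extracellular solution against tefluthrin (10 μM)-enhanced late current. Automated patch clamp (23-25° C) on HEK293 expressing alpha subunit alone: −120 mV holding, 250 ms depolarization to −20 mV every 10 s. Read-out is percent inhibition of mean current over 225–250 ms.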

[4] = Microsomal stability assay, dog; type: in vitro ADME; details: metabolic stability, dog liver microsomes 0.5 mg/mL, substrate 3 uM
How it was run: as §1

[5] = target: wild-type human cardiac sodium channel, hNav1.5 (peak INa) (Homo sapiens, UniProt Q14524); assay: Peak INa screening assay (tonic and use-dependent block); type: cell-based; details: 1 μM
Sequence of wild-type human cardiac sodium channel, hNav1.5 (peak INa) (Q14524 whole entry): as above
Experimental: The late sodium current (Late INa) and peak sodium current (Peak INa) assays are performed on an automated electrophysiology platform, QPatch 16× (Sophion Bioscience, Copenhagen, Denmark), which uses the whole cell patch clamp technique to measure currents through the cell membrane of up to 16 cells at a time. The assay uses an HEK293 (human embryonic kidney) cell line heterologously expressing the wild-type human cardiac sodium channel, hNav1.5, purchased from Millipore (Billerica, Mass.). No beta subunits were coexpressed with the Na channel alpha subunit. Cells are maintained with standard tissue culture procedures and stable channel expression is maintained with 400 μg/mL Geneticin in the culture medium. […] Experiments are carried out at 23-25° C. For both the Late INa and Peak INa assays, series resistance compensation is set to 100% and series resistance and whole-cell compensation are performed automatically. Currents are digitized at 25 kHz and low-pass filtered at 12 kHz and 10 kHz for the late and peak INa assays, respectively. Currents through open sodium channels are automatically recorded and stored in the Sophion Bioscience Oracle database (Sophion Bioscience, Copehagen, Denmark). Analysis is performed using QPatch Assay and database software and data are compiled in Excel. Compound stocks are routinely made by the Gilead Sample Bank in plastic vials to 10 mM in dimethyl sulfoxide (DMSO). In some cases, when compounds are not soluble in DMSO, they are made in 100% ethanol. Stocks are sonicated as necessary. […] The intracellular solution used to perfuse the inside of the cells for both the Late INa and Peak INa assays contains: 120 mM CsF, 20 mM CsCl, 5 mM EGTA, 5 mM HEPES and pH adjusted to 7.4 with CsOH. Compounds are diluted in extracellular solution to 1 μM in glass vials and then transferred to glass well plates before robotic addition to the cells. […] Compounds were also evaluated for their effect in several other assays, including their effect on Peak INa. Good separation between the concentrations of test compound to reduce late and peak INa is beneficial to enable separation of the desired effect to reduce late INa-induced electrical and mechanical dysfunction from the undesired effect to reduce peak INa, which can lead to slowing or block of conduction of electrical excitation in the heart. It is contemplated that the compounds of Formula I avoid significant block of peak INa. Since the peak INa in the cells used herein can be very large, introducing artifacts in the recording, the concentration of Na^+ in the bath can be reduced to 20 mM and a nonpermeant cation added to compensate for the Na^+ that was removed to maintain the osmolarity and ionic strength of the solution (see solution details below). Analysis of peak INa generally requires correction for rundown before determining the % block of peak current by the tested compound. […] A low stimulation frequency of 0.1 Hz was used to determine the effect of the test compound when the channel spent most of the time in the resting (closed) state and provides information about Tonic Block (TB). A higher stimulation frequency (3 Hz) was used to measure block of the channel when it spent more time in the activated and inactivated states and provided a measure of Use-Dependent Block (UDB). Use-dependent block refers to the accumulation of block with increased frequency of channel activation. Block of cardiac peak INa by compounds of this invention is increased with an increase in the frequency of stimulation from 0.1 to 1-5 Hz (frequencies encountered either in the normal heart or during tachycardia). It is therefore expected that reduction of peak INa by compounds of this invention will be greater at high heart rates, such as those during tachyarrhythmias, than at normal heart rates. […]

[6] = tonic block of peak INa, 0.1 Hz, read-out: Peak TB 1 μM
[7] = use-dependent block of peak INa, 3 Hz, read-out: Peak UDB 1 μM

| MS Rat THalf [1] [min] | MS Human THalf [2] [min] | MS Dog THalf [4] [min] | SMILES | inhibition at 1 µM [3] [%] | inhibition at 1 µM [5, 6] [%] | inhibition at 1 µM [5, 7] [%] |
| --- | --- | --- | --- | --- | --- | --- |
| 16 | 11 | 7 | Cc1cc(C)n(CC2(Cn3nnc4ccc(-c5ccc(OC(F)(F)F)cc5)cc4c3=O)CC2)n1 [II-64, 3-((1-((3,5-dimethyl-1H-pyrazol-1-yl)methyl)cyclopropyl)methyl)-6-(4-(trifluoromethoxy)phenyl)benzo[d][1,2,3]triazin-4(3H)-one] | 43 | 3 | 9 |
| 2 | 2 | 2 | Cc1nccn1CC1(Cn2nnc3ccc(-c4ccc(OC(F)(F)F)cc4)cc3c2=O)CC1 [II-34, 3-((1-((2-methyl-1H-imidazol-1-yl)methyl)cyclopropyl)methyl)-6-(4-(trifluoromethoxy)phenyl)benzo[d][1,2,3]triazin-4(3H)-one] | 48 | 27 | 34 |
| 272 | 54 | 313 | O=C(c1ccccn1)N1CCc2ccc(-c3ccc(C(F)(F)F)cc3)cc2C1 [IX-6, pyridin-2-yl(7-(4-(trifluoromethyl)phenyl)-3,4-dihydroisoquinolin-2(1H)-yl)methanone] | 62 | 28 | 37 |
| 29 | 16 | 5 | Cc1noc(Cn2nnc3ccc(-c4ccc(C5CC5)cc4)cc3c2=O)n1 [II-73, 6-(4-cyclopropylphenyl)-3-((3-methyl-1,2,4-oxadiazol-5-yl)methyl)benzo[d][1,2,3]triazin-4(3H)-one] | 45 | 6 | 1 |
| 80 | 382 | 67 | Cc1cc(Cn2nnc3ccc(-c4ccc(OC(F)(F)F)cc4)cc3c2=O)no1 [II-26, 3-((5-methylisoxazol-3-yl)methyl)-6-(4-(trifluoromethoxy)phenyl)benzo[d][1,2,3]triazin-4(3H)-one] | 47 | 14 | 5 |
| 24 | 206 | 63 | Cc1coc(Cn2nnc3ccc(-c4ccc(OC(F)(F)F)cc4)cc3c2=O)n1 [II-97, 3-((4-methyloxazol-2-yl)methyl)-6-(4-(trifluoromethoxy)phenyl)benzo[d][1,2,3]triazin-4(3H)-one] | 54 | 12 | 7 |
| 122 | 103 | 126 | O=C1c2cc(-c3ccc(C(F)(F)F)cc3)ccc2SCN1Cc1ncccn1 [Compound X-4, 3-(pyrimidin-2-ylmethyl)-6-(4-(trifluoromethyl)phenyl)-2H-benzo[e][1,3]thiazin-4(3H)-one] | 52 | 27 | 25 |
| 42 | 128 | 62 | Cc1nc(Cn2nnc3ccc(-c4ccc(OC(F)(F)F)cc4)cc3c2=O)co1 [II-99, 3-((2-methyloxazol-4-yl)methyl)-6-(4-(trifluoromethoxy)phenyl)benzo[d][1,2,3]triazin-4(3H)-one] | 47 | 9 | 0 |
| 324 | > 395 | 219 | O=c1c2cc(-c3ccc(OC(F)(F)F)cc3)ccc2nnn1Cc1ncccn1 [II-24, 3-(pyrimidin-2-ylmethyl)-6-(4-(trifluoromethoxy)phenyl)benzo[d][1,2,3]triazin-4(3H)-one] | 60 | 19 | 24 |
